Measured values published in PMC11024961, “Effects of Chrysin and Chrysin-7-sulfate on Ochratoxin A-Albumin Interactions and on the Plasma and Kidney Levels of the Mycotoxin in Rats” (ACS Omega, 2024).
Where “and” joins values, the source holds several entries; their conditions need not be identical. Equal values may be shown once.

Tests used:
rat serum albumin (RSA) [1] = target: T1, rat serum albumin (RSA) (Rattus norvegicus, UniProt P02770); experiment: Fluorescence emission intensity of OTA-RSA with ligands; format: binding; settings: ligand 0–30 μM; OTA 1.0 μM, RSA 1.5 μM; λex 393 nm, λem 446 nm; inner-filter corrected
T1 construct: purchased Merck (Darmstadt, Germany) A6272
T1 sequence (P02770 25-608): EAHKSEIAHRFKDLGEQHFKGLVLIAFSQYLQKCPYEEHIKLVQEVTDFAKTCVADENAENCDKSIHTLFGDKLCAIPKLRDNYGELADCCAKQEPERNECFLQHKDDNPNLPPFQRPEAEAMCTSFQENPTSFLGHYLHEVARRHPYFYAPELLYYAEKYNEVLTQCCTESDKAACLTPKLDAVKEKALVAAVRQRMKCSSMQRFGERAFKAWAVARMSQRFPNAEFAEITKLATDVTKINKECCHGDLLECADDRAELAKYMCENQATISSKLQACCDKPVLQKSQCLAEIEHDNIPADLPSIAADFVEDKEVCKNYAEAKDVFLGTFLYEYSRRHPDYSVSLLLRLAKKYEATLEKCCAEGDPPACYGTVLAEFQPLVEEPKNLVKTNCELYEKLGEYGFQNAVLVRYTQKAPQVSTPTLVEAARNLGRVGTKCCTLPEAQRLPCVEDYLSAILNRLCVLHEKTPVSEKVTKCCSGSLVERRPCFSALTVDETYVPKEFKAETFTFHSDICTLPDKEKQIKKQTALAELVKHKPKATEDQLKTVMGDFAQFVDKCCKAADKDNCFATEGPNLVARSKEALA
Experimental: (§1) Fluorescence spectroscopic studies were carried out using a Hitachi F-4500 spectrofluorometer (Tokyo, Japan). Fluorescence emission spectra were collected, and fluorescence anisotropy values were determined in phosphate-buffered saline (PBS, pH 7.4) at room temperature, using 393 and 446 nm as excitation and emission wavelengths, respectively. […] Absorption spectra of ligand molecules were also recorded employing a Jasco V730 UV–vis spectrophotometer (Tokyo, Japan), after which their inner-filter effects were corrected using the following equation:[28],[29] [drawing 1] 1 where Icor and Iobs are the corrected and the observed fluorescence emission intensities at 446 nm, respectively, while Aex and Aem are the absorbance values of the competitor ligand molecules at 393 and 446 nm, respectively.

[2] = target: T2, human serum albumin (HSA) (Homo sapiens, UniProt P02768); experiment: Fluorescence emission intensity of OTA-HSA with ligands; format: binding; settings: ligand 0–30 μM; OTA 1.0 μM, HSA 1.5 μM; λex 393 nm, λem 446 nm; inner-filter corrected
T2 construct: purchased Merck (Darmstadt, Germany) A1653
T2 sequence (P02768 25-609): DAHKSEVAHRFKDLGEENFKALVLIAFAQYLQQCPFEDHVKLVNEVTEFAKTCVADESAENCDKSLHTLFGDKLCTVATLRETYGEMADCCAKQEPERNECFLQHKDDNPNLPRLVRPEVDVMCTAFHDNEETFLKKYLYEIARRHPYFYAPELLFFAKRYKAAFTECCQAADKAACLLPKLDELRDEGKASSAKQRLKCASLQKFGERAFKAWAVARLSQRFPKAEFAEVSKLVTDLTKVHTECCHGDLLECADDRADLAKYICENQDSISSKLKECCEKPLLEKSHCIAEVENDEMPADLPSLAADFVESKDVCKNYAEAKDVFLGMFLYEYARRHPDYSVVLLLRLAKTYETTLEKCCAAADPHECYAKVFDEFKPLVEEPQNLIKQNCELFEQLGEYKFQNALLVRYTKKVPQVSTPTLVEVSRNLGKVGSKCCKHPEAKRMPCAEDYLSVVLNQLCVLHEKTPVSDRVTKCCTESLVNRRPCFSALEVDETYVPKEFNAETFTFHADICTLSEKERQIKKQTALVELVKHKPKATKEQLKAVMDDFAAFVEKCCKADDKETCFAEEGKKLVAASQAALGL
Experimental: as §1

rat serum albumin (RSA) [3] = target: T1, rat serum albumin (RSA); experiment: biochemical; format: binding
Experimental: (§2) Albumin (with the bound ligand molecules) was sedimented with ultracentrifugation, employing the previously described method.[26],[29],[31] […] These solutions (900 μL) were centrifuged for 16 h at 170,000g and 20 °C, using an Optima MAX-XP tabletop ultracentrifuge (with an MLA-130 fixed-angle rotor; Beckman Coulter, Brea, CA, US). After 200 μL of the protein-free supernatant was carefully aspirated, the free unbound concentration of OTA was directly analyzed from the supernatant by HPLC-FLD (details in Section 2.6). Association constants (Ka) of OTA-HSA and OTA-RSA complexes were calculated based on the following equation, assuming 1:1 stoichiometry of the complex formation:[29],[32] [drawing 3] 3 where [OTA] is the concentration of the unbound free mycotoxin, [SA] is the concentration of the unbound free serum albumin, while [OTA-SA] is the molar concentration of the mycotoxin-albumin complex in the solution.
(§3) OTA was quantified with the previously reported HPLC-FLD method,[48] employing an integrated HPLC system (Jasco, Tokyo, Japan): autosampler (AS-4050), binary pump (PU-4180), fluorescence detector (FP-920), and ChromNAV2 software. Briefly, the isocratic elution was performed with 1.0 mL/min flow rate at room temperature, using sodium borate buffer (0.01 M, pH 10.0) and ACN (87:13 v/v%) as the mobile phase. Samples (20 μL) were driven through a SecurityGuard precolumn (C18, 4.0 × 3.0 mm; Phenomenex, Torrance, CA, US) linked to a Kinetex EVO (C18, 150 × 4.6 mm, 5 μm; Phenomenex) analytical column. The fluorescence detection of the mycotoxin was carried out at 383 and 446 nm excitation and emission wavelengths, respectively.

[4] = target: T2, human serum albumin (HSA); experiment: biochemical; format: binding; settings: for unbound fraction of OTA with HSA: OTA 1.0 μM, HSA 1.5 μM, PBS pH 7.4
Experimental: as §2, §3

[5] = Plasma and kidney levels of OTA after single i.v. OTA with or without C7S; format: in vivo, Wistar rats
Experimental: (§4) Male Wistar rats were obtained from Toxi-Coop Ltd. (Budapest, Hungary). The animals (weighing 150–250 g) were kept at 24 ± 2 °C, at 50–60% relative air humidity, and on a 12 h light/dark cycle in the Laboratory Animal House of the Department of Pharmacology and Pharmacotherapy (Medical School, University of Pécs) under standard pathogen-free conditions and were provided with standard rat chow and tap water ad libitum.
(§5) Stock solution of OTA (10 mg/mL) was prepared in 96 v/v% ethanol (Reanal, Budapest, Hungary). C7S (90 mg/mL) were dissolved in dimethyl sulfoxide (Fluka, Charlotte, NC, US). In the i.v. experiments, the final concentration of dimethyl sulfoxide was uniformly 1.67 v/v % in each solution administered. In the per os experiments, CHR was suspended in physiological saline by using a mortar and pestle.
In the first experiment, rats were weighed and then treated intravenously through the tail vein with OTA (50 μg/kg, 2 mL/kg, in physiological saline) without or with C7S (1 or 3 mg/kg). Before and after the treatment, rats consumed feed and water ad libitum. Blood samples (approximately 100–150 μL) were collected from the tail vein into heparinized tubes after 2 and 6 h. After 24 h, blood (cardiac puncture) and kidney samples were collected. Plasma and tissue samples were stored at −80 °C until analysis.
Sample preparation was performed as it has been previously reported.[48] Briefly, after centrifugation, rat plasma was diluted with a 2-fold volume of acetonitrile, and then samples were vortexed, sonicated for 3 min, and centrifuged for 5 min at 14,000g and 4 °C. Thereafter, a 2-fold volume of HPLC eluent (see in Section 2.6) was added to the supernatant. These samples were directly analyzed by HPLC-FLD (see Section 2.6).
After weighing, kidney samples were homogenized with a 2-fold amount of water employing a Potter–Elvehjem tissue homogenizer. Then, 100 μL of homogenate was diluted with 2-fold volume of acetonitrile, after which these samples were treated the same way as plasma samples (vortexing, sonication, centrifugation, 2-fold dilution with HPLC eluent, and then HPLC-FLD analysis).
as §3, with “Samples (20 μL) were driven through a SecurityGuard precolumn (C18, 4.0 × 3.0 mm; Phenomenex, Torrance, CA, US) linked to a Kinetex EVO (C18, 150 × 4.6 mm, 5 μm; Phenomenex) analytical column.” left out

[6] = target: T2, human serum albumin (HSA); experiment: Fluorescence anisotropy of OTA-HSA with ligands; format: binding
Experimental: as §1
(§6) Fluorescence anisotropy (r) values were calculated employing the following equation:[10],[30] [drawing 2] 2 where IVV is the emission intensity measured in vertical positions of the polarizers at both the presample and the postsample sites, IVH is the emission intensity measured in vertical position of the polarizer at presample site and in horizontal position of the polarizer at the postsample site, while G is the instrumental factor (showing the preference of the emission optics for the horizontal orientation to the vertical orientation).

HSA [7] = test system: HSA; design: method as in PMID 30562928; settings: cited from earlier work
rat serum albumin (RSA) [8] = target: T1, rat serum albumin (RSA); experiment: Fluorescence anisotropy of OTA-RSA with ligands; format: binding; settings: ligand 0–30 μM; OTA 1.0 μM, RSA 1.5 μM
Experimental: as §1, §6

[9] = Plasma and kidney levels of OTA after repeated peroral OTA with or without CHR; format: in vivo, Wistar rats; settings: CHR 1 or 3 mg/kg/day per os with OTA 100 μg/kg/day, three days; sampled on the fourth day
Experimental: as §4
as §5, with “pestle. […]” for “pestle.”
Sample preparation was performed as it has been previously reported.[48] […] These samples were directly analyzed by HPLC-FLD (see Section 2.6). […]
OTA was quantified with the previously reported HPLC-FLD method,[48] employing an integrated HPLC system (Jasco, Tokyo, Japan): autosampler (AS-4050), binary pump (PU-4180), fluorescence detector (FP-920), and ChromNAV2 software. […] The fluorescence detection of the mycotoxin was carried out at 383 and 446 nm excitation and emission wavelengths, respectively.

[10] = design: method as in PMID 37649524; settings: cited from earlier work
rat serum albumin (RSA) [11] = target: T1, rat serum albumin (RSA); design: method as in doi:10.1016/j.jlumin.2013.08.059; settings: cited from earlier work
[12] = test system: Bovine serum albumin (BSA); design: method as in doi:10.1016/j.jlumin.2013.08.059; settings: cited from earlier work
HSA [13] = settings: cited from earlier work
[14] = C7S 3 mg/kg i.v. with OTA 50 μg/kg i.v., 24 h
[15] = ligand 0–30 μM, OTA 1.0 μM, HSA 1.5 μM

Row | Molecule | effect on emission signal of OTA-RSA complex, in words (rat serum albumin (RSA) [1]) | effect on emission signal of OTA-HSA complex, in words [2] | displacement of OTA from RSA (free fraction), in words (rat serum albumin (RSA) [3]; ligand 0–30 μM, overall) | displacement of OTA from HSA (free fraction), in words ([4]; ligand 0–30 μM, overall) | effect on fluorescence anisotropy of OTA-HSA, in words [6, 15] | displacement of OTA from HSA (free fraction), in words ([4]; ligand 30 μM) | effect on fluorescence anisotropy of OTA-RSA, in words (rat serum albumin (RSA) [8]) | effect on fluorescence anisotropy of OTA-HSA, in words ([6]; ligand 15 μM) | also measured
1 | O=c1cc(-c2ccccc2)oc2cc(OS(=O)(=O)O)cc(O)c12 [C7S, chrysin-7-sulfate] | strong decreases | strong decreases | strongly disrupted | strongly interfered | marked reduction |  |  |  | displacement of OTA from RSA (free fraction), in words (rat serum albumin (RSA) [3]; ligand 30 μM): almost completely displaced; fold lower Ka of OTA-RSA in the presence of the ligand (rat serum albumin (RSA) [3]; ligand 30 μM): approximately 100 fold; unbound fraction of OTA with HSA ([4]; ligand 15 μM): 55%; fold lower Ka of OTA-HSA in the presence of the ligand ([4]; ligand 30 μM): approximately 100 fold; unbound fraction of OTA with HSA ([4]; ligand 30 μM): 75%; effect on plasma levels of OTA, in words ([5]; C7S 1 mg/kg i.v. with OTA 50 μg/kg i.v., 2, 6 and 24 h): did not induce significant changes; effect on kidney levels of OTA, in words ([5]; C7S 1 mg/kg i.v. with OTA 50 μg/kg i.v., 24 h): did not affect; effect on kidney levels of OTA, in words [5, 14]: slightly decreased; effect on plasma levels of OTA, in words [5, 14]: not statistically significant; affinity to HSA, fold higher than CHR (HSA [7]): 3 fold
2 | O=c1cc(-c2ccccc2)oc2cc(O)cc(O)c12 [CHR, Chrysin] | strong decreases | strong decreases | weak displacing effects |  | only slightly decreased | only minor displacement | only slightly decreased |  | effect on kidney levels of OTA, in words [9]: did not cause statistically significant changes; effect on plasma levels of OTA, in words [9]: did not cause statistically significant changes
3 | C[C@@H]1Cc2c(Cl)cc(C(=O)N[C@@H](Cc3ccccc3)C(=O)O)c(O)c2C(=O)O1 [OTA, Ochratoxin A] |  |  |  |  |  |  |  |  | free unbound fraction in the human circulation [10]: 0.02%; plasma elimination half-life in man [10]: approximately 35 days; fold weaker complex with RSA compared to HSA (rat serum albumin (RSA) [11]): approximately 10 fold; Kd (rat serum albumin (RSA) [3]; Ka of OTA-RSA complex, no competitor, OTA 1.0 μM, RSA up to 1.5 μM, PBS pH 7.4, 1:1 stoichiometry): 340 nM and 345 nM; Kd [4]: 40 nM; binding constant of OTA-BSA complex [12]: > 10^6 L/mol; fold weaker complex with BSA compared to HSA [12]: approximately 10 fold; association/binding constant of the OTA-HSA complex (HSA [13]): exceeds 10^7 L/mol
4 | C=CC1=C(C)/C(=C/c2[nH]c(Cc3[nH]c(/C=C4\NC(=O)C(C)=C4C=C)c(C)c3CCC(=O)O)c(CCC(=O)O)c2C)NC1=O [bilirubin] | remarkable decreases | remarkable decreases | moderate to strong displacement |  | smaller, gradual decreases | only a minor elevation | smaller, gradual decreases | marked decreases | displacement of OTA from HSA (free fraction), in words ([4]; ligand 3 and 15 μM): no significant increase
5 | O=C(CCCCC(=O)Nc1c(I)cc(I)c(C(=O)O)c1I)Nc1c(I)cc(I)c(C(=O)O)c1I [iodipamide] | only slightly modified | only slightly modified | weak displacing effects |  | only slightly decreased | only minor displacement | only slightly decreased |  | 
6 | hemin | remarkable decreases | remarkable decreases |  | better displacing effect than bilirubin | smaller, gradual decreases |  | smaller, gradual decreases | marked decreases | displacement of OTA from RSA (free fraction), in words (rat serum albumin (RSA) [3]; ligand 15 and 30 μM): weak to moderate impacts
